Measurements taken from patent US12600726B2, “Antagonists of the muscarinic acetylcholine receptor M4” (Vanderbilt University, priority 2017, dated 2026).

Experiments:
Rat M4 = target: T1, Rat M4 (Rattus norvegicus, UniProt P08485); assay: mAChR M4 cell-based functional calcium flux assay (rat M4/Gqi5/CHO cells); conditions: for Emin (rat M4): % ACh maximum at 30 μM; for IC50: decrease of the response to an EC80 concentration of acetylcholine
T1 construct: expressed in transfected cells; host or cells: CHO-K1 (ATCC), stably expressing M4 and Gqi5
T1 sequence (P08485 1-478): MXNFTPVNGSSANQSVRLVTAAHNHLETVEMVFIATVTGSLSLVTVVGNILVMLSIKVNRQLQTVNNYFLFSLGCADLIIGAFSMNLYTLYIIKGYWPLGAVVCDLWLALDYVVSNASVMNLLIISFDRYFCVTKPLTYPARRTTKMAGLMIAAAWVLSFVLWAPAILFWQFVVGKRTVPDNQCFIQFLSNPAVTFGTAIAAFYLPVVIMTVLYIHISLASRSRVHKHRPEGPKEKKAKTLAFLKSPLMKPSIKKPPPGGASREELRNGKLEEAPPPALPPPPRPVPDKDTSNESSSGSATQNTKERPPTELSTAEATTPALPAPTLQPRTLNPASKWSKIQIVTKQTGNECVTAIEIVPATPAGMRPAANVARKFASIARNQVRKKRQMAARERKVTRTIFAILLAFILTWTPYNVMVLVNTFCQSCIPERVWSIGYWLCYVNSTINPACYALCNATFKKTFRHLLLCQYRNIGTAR
Procedure, shortened: (§1)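 CHO-K1 cells stably co-expressing M4 of the given species with chimeric Gqi5 were loaded with Fluo-4 AM and read for calcium flux. Compounds (10-point, 1:3 dilutions) were added first, followed by an acetylcholine EC20 at 143 s and an EC80 at 268 s. IC50 reflects the concentration-dependent fall in the EC80 response, fitted with a four-parameter logistic.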

Human M4 = target: T2, Human M4 (Homo sapiens, UniProt P08173); assay: mAChR M4 cell-based functional calcium flux assay (human M4/Gqi5/CHO cells); conditions: for Emin (human M4): % ACh maximum at 30 μM; for IC50: decrease of the response to an EC80 concentration of acetylcholine
T2 construct: expressed in transfected cells; host or cells: CHO-K1 (ATCC), stably expressing M4 and Gqi5
T2 sequence (P08173 1-479): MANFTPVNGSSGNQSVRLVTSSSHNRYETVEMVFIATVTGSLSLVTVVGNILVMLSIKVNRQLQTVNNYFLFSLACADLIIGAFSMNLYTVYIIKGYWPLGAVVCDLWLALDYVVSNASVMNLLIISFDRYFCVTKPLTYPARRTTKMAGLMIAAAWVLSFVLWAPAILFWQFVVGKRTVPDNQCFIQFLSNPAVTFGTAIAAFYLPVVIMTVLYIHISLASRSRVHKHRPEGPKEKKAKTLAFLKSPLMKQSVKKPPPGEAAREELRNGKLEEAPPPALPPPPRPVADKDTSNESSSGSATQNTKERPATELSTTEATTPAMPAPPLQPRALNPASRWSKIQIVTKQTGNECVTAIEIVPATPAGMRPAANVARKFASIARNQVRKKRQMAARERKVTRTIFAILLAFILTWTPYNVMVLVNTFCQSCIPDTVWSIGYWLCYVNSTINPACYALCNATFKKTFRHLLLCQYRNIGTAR
Procedure, shortened: as §1

## Cc1nn(C)cc1-c1ccc(NCC2CC23CCN(CC2CC4C=CC2C4)CC3)nc1 (centres unmarked) [Compound 70, N-[[6-(5-bicyclo[2.2.1]hept-2-enylmethyl)-6-azaspiro[2.5]octan-2-yl]methyl]-5-(1,3-dimethylpyrazol-4-yl)pyridin-2-amine]
Rat M4
  Emin (rat M4): 3.96%
  IC50: 170 nM
Human M4
  Emin (human M4): 3.29%
  IC50: 45.2 nM

## C1=CC2CC1CC2CN1CCC2(CC1)CC2CNc1ncc(-c2ccccc2)s1 (centres unmarked) [Compound 71, N-[[6-(5-bicyclo[2.2.1]hept-2-enylmethyl)-6-azaspiro[2.5]octan-2-yl]methyl]-5-phenyl-thiazol-2-amine]
Rat M4
  Emin (rat M4): 4.72%
  IC50: 833 nM
Human M4
  Emin (human M4): 4.74%
  IC50: 1270 nM

## CC(C)(C)CCN1CCC2(CC1)CC2CNc1ncc(-c2ccccc2)s1 (centres unmarked) [Compound 72, N-[[6-(3,3-dimethylbutyl)-6-azaspiro[2.5]octan-2-yl]methyl]-5-phenyl-thiazol-2-amine]
Rat M4
  Emin (rat M4): 4.86%
  IC50: 779 nM
Human M4
  Emin (human M4): 4.42%
  IC50: 1260 nM

## c1ccc(-c2cnc(NCC3CC34CCN(CC3CCOCC3)CC4)s2)cc1 (centres unmarked) [Compound 73, 5-phenyl-N-[[6-(tetrahydropyran-4-ylmethyl)-6-azaspiro[2.5]octan-2-yl]methyl]thiazol-2-amine]
Rat M4
  Emin (rat M4): 9.84%
  IC50: 3090 nM
Human M4
  Emin (human M4): 8.96%
  IC50: 6550 nM

## CC(C)(C)CCN1CCC2(CC1)CC2CNc1ccc(N2CCC(F)(F)C2)nn1 (centres unmarked) [Compound 75, 6-(3,3-difluoropyrrolidin-1-yl)-N-((6-(3,3-dimethylbutyl)-6-azaspiro[2.5]octan-1-yl)methyl)pyridazin-3-amine]
Rat M4
  Emin (rat M4): 5%
  IC50: 114 nM
Human M4
  Emin (human M4): 4%
  IC50: 41.2 nM

## Cc1cnn(C)c1-c1ccc(N(C)CC2CC23CCN(CCC(C)(C)C)CC3)nn1 (centres unmarked) [Compound 76, 6-(1,4-dimethyl-1H-pyrazol-5-yl)-N-((6-(3,3-dimethylbutyl)-6-azaspiro[2.5]octan-1-yl)methyl)-N-methylpyridazin-3-amine]
Rat M4
  Emin (rat M4): 7%
  IC50: 693 nM
Human M4
  Emin (human M4): 4%
  IC50: 99.6 nM

## CC(C)(C)CCN1CCC2(CC1)CC2CNc1ccc(N2CCOCC2)nn1 (centres unmarked) [Compound 79, N-[[6-(3,3-dimethylbutyl)-6-azaspiro[2.5]octan-2-yl]methyl]-6-morpholino-pyridazin-3-amine]
Rat M4
  Emin (rat M4): 5%
  IC50: 13.9 nM
Human M4
  Emin (human M4): 5%
  IC50: 5 nM

## CC(C)(C)CCN1CCC2(CC1)CC2CNc1ccc(N2CCC(F)(F)CC2)nn1 (centres unmarked) [Compound 80, 6-(4,4-difluoro-1-piperidyl)-N-[[6-(3,3-dimethylbutyl)-6-azaspiro[2.5]octan-2-yl]methyl]pyridazin-3-amine]
Rat M4
  Emin (rat M4): 3%
  IC50: 93.4 nM
Human M4
  Emin (human M4): 3%
  IC50: 39.8 nM

## CC(C)(C)CCN1CCC2(CC1)CC2CNc1ccc(N2CCCC2)nn1 (centres unmarked) [Compound 81, N-[[6-(3,3-dimethylbutyl)-6-azaspiro[2.5]octan-2-yl]methyl]-6-pyrrolidin-1-yl-pyridazin-3-amine]
Rat M4
  Emin (rat M4): 4%
  IC50: 307 nM
Human M4
  Emin (human M4): 4%
  IC50: 85.2 nM

## C1=CC2CC1CC2CN1CCC2(CC1)CC2CNc1ccc(N2CCOCC2)nn1 (centres unmarked) [Compound 82, N-[[6-(5-bicyclo[2.2.1]hept-2-enylmethyl)-6-azaspiro[2.5]octan-2-yl]methyl]-6-morpholino-pyridazin-3-amine]
Rat M4
  Emin (rat M4): 6%
  IC50: 48.2 nM
Human M4
  Emin (human M4): 3%
  IC50: 5.06 nM

## c1cc(N2CCOCC2)nnc1NCC1CC12CCN(CC1CCCCC1)CC2 (centres unmarked) [Compound 83, N-[[6-(cyclohexylmethyl)-6-azaspiro[2.5]octan-2-yl]methyl]-6-morpholino-pyridazin-3-amine]
Rat M4
  Emin (rat M4): 7%
  IC50: 362 nM
Human M4
  Emin (human M4): 6%
  IC50: 33.5 nM

## c1cc(N2CCOCC2)nnc1NCC1CC12CCN(CC13CC4CC(CC(C4)C1)C3)CC2 (centres unmarked) [Compound 84, N-[[6-(1-adamantylmethyl)-6-azaspiro[2.5]octan-2-yl]methyl]-6-morpholino-pyridazin-3-amine]
Rat M4
  Emin (rat M4): 3%
  IC50: 257 nM
Human M4
  Emin (human M4): 5%
  IC50: 33.9 nM

## Cc1nn(C)cc1-c1nnc(NCC2CC23CCN(Cc2ccccc2)CC3)c2ccccc12 (centres unmarked) [Compound 88, N-[(6-benzyl-6-azaspiro[2.5]octan-2-yl)methyl]-4-(1,3-dimethylpyrazol-4-yl)phthalazin-1-amine]
Rat M4
  Emin (rat M4): 6%
  IC50: 1250 nM
Human M4
  Emin (human M4): 5%
  IC50: 265 nM

## Cc1nn(C)cc1-c1nnc(NCC2CC23CCN(CC24CC5CC(CC(C5)C2)C4)CC3)c2ccccc12 (centres unmarked) [Compound 89, N-[[6-(1-adamantylmethyl)-6-azaspiro[2.5]octan-2-yl]methyl]-4-(1,3-dimethylpyrazol-4-yl)phthalazin-1-amine]
Rat M4
  Emin (rat M4): 4%
  IC50: 350 nM
Human M4
  Emin (human M4): 3%
  IC50: 170 nM

## Fc1ccc(Cl)c(-c2ccc(NC[C@@H]3CC34CCN(CC3CCOCC3)CC4)nn2)c1 [Compound 107, (R)-6-(2-chloro-5-fluoro-phenyl)-N-[[6-(tetrahydropyran-4-ylmethyl)-6-azaspiro[2.5]octan-2-yl]methyl]pyridazin-3-amine]
Rat M4
  Emin (rat M4): 6%
  IC50: 12.9 nM
Human M4
  Emin (human M4): 4%
  IC50: 1.8 nM

## Fc1ccc(Cl)c(-c2ccc(NC[C@@H]3CC34CCN(CC3CC5C=CC3C5)CC4)nn2)c1 (stereo partly drawn) [Compound 108, N-(((1R)-6-(bicyclo[2.2.1]hept-5-en-2-ylmethyl)-6-azaspiro[2.5]octan-1-yl)methyl)-6-(2-chloro-5-fluorophenyl)pyridazin-3-amine]
Rat M4
  Emin (rat M4): 3%
  IC50: 48.1 nM
Human M4
  Emin (human M4): 2%
  IC50: 9.89 nM

## Fc1ccc(Cl)c(-c2ccc(NC[C@@H]3CC34CCN(CC3CCCCCC3)CC4)nn2)c1 [Compound 109, (R)-6-(2-chloro-5-fluorophenyl)-N-((6-(cycloheptylmethyl)-6-azaspiro[2.5]octan-1-yl)methyl)pyridazin-3-amine]
Rat M4
  Emin (rat M4): 3%
  IC50: 92.1 nM
Human M4
  Emin (human M4): 4%
  IC50: 50.6 nM

## Fc1ccc(Cl)c(-c2ccc(NC[C@@H]3CC34CCN(CC3CC5CCC3O5)CC4)nn2)c1 (stereo partly drawn) [Compound 110, N-(((1R)-6-((7-oxabicyclo[2.2.1]heptan-2-yl)methyl)-6-azaspiro[2.5]octan-1-yl)methyl)-6-(2-chloro-5-fluorophenyl)pyridazin-3-amine]
Rat M4
  Emin (rat M4): 4%
  IC50: 39.2 nM
Human M4
  Emin (human M4): 3%
  IC50: 2.29 nM

## CC(=O)Nc1ccc(-c2ccc(NC[C@@H]3CC34CCN(CCC(C)(C)C)CC4)nn2)cc1 [Compound 111, N-[4-[6-[[(2R)-6-(3,3-dimethylbutyl)-6-azaspiro[2.5]octan-2-yl]methylamino]pyridazin-3-yl]phenyl]acetamide]
Rat M4
  Emin (rat M4): 4%
  IC50: 7.53 nM
Human M4
  Emin (human M4): 6%
  IC50: 2.04 nM

## Cc1cccnc1CN1CCC2(CC1)C[C@H]2CNc1ccc(-c2cc(F)ccc2Cl)nn1 [Compound 114, 6-(2-chloro-5-fluoro-phenyl)-N-[[(2R)-6-[(3-methyl-2-pyridyl)methyl]-6-azaspiro[2.5]octan-2-yl]methyl]pyridazin-3-amine]
Rat M4
  Emin (rat M4): 5%
  IC50: 223 nM
Human M4
  Emin (human M4): 2%
  IC50: 25.7 nM
